Values of other authors in patent US20020155083A1, “Dermal regeneration methods and compositions related thereto in conjunction with laser phototherapy, microdermabrasion and epidermabrasion” (priority 2001, published 2002).
Ends that are not written are not given here.

What was measured:
[1] = test system: interferon (IFN); conditions: mouse, in vivo
[2] = test system: BCO, Candida, or Cryptococcus; conditions: immunosuppressed mice infected with BCO
[3] = test system: influenza virus; conditions: in combination with amantadine and interferon; mice infected with the influenza virus
[4] = test system: Candida albicans; conditions: mice, injection
[5] = test system: C. albicans, Listeria monocytogenes, Pseudomonas aeruginosa, and Serratia marescens; conditions: 5-fluorouracil (5FU)- or morphine-immunosuppressed mice, injection

Substance: thymosin α1 (SDAAVDTSSEITTKDLKEKKEVVEEAEN; ends and bridges not checked; UniProt P06454 2-29, looked up) [Tα1]
- amount of interferon (IFN) produced [1]: significant rise
- survival rate [2]: increased survival rate
- long term survival [3]: significantly increase
- viral titers in the lungs [3]: reduce viral titers
- resistance to infection with Candida albicans [4]: increased resistance
- protection against opportunistic infections [5]: protect
